Source: article PMC12040169 (PLOS Biology, 2025)

Assay: in vitro
Details: human, hela cells, % viability

SMILES	viability at 28.5 h, 10 µM [%]
C=CCn1c(Cc2csc(NC(=O)c3ccc(OC)cc3O)n2)n[nH]c1=S [CBK296752]	104
COc1ccc(S(=O)(=O)N2CCN(C(C(=O)O)c3ccc(C)cc3)CC2)cc1 (centres unmarked) [CBK296753]	104
COc1cc(N)c(Cl)cc1C(=O)OCc1cc2ccc(C)cc2nc1Cl [CBK296755]	89.7
NC(=O)C1CCN(C(=O)C2=NN(c3ccccc3)C(c3ccccc3)C2)CC1 (centres unmarked) [CBK296760]	99.1
COc1cc(NC(=O)CC2(C(=O)O)CCCCC2)ccc1N1CCCC1=O [CBK296761]	109
CCc1nnc(COC(=O)c2ccccc2NC(=O)Cc2ccccc2)o1 [CBK296762]	81.5
Cc1ccc(-n2c(C)cc(C(=O)CSc3n[nH]c(=O)n3C3CC3)c2C)cc1C [CBK296764]	92.3
Cn1c(Cc2csc(NC(=O)CNC(=O)Cc3ccccc3)n2)n[nH]c1=S [CBK296765]	102
Cc1ccc(CC(=O)Nc2nc(Cc3n[nH]c(=S)n3C)cs2)cc1 [CBK296766]	90.5
O=C(O)c1cc(S(=O)(=O)NCc2ccc(Cl)cc2Cl)ccc1O [CBK296924]	94.7
CCn1c(-c2ccc(C)cc2)cnc1SCC(=O)N1CCN(C(C)=O)CC1 [CBK296925]	110
CCCCN(C(=O)c1cc(C)nc2ccccc12)c1ccccc1 [CBK296926]	89.9
Cc1ccc(C2=NN(C(=O)CCC(=O)O)C(c3cc4cccc(C)c4[nH]c3=O)C2)cc1 (centres unmarked) [CBK296927]	91
CC(=O)Nc1ccc(NC(=O)CC2(CC(=O)O)CCCC2)cc1 [CBK296931]	97.3
Cc1ccc(Cn2ccsc2=NC(=O)c2cc(S(=O)(=O)N3CCOCC3)ccc2C)cc1 [CBK296935]	101
O=C(Cn1nc(C(=O)O)c2ccccc2c1=O)c1ccc(S(=O)(=O)N2CCOCC2)cc1 [CBK296939]	90.2
CCN(CC)C(=O)c1cccc(NS(=O)(=O)c2cccc(C(=O)O)c2)c1 [CBK296943]	97.6
CC1CCCC(C)N1S(=O)(=O)c1ccc(NS(=O)(=O)c2cccc(C(=O)O)c2)cc1 (centres unmarked) [CBK296944]	94.6
COc1cc(C=c2sc(=CC(=O)C(C)(C)C)[nH]c2=O)ccc1OCC(=O)O [CBK296948]	104
O=C(Cc1ccc(Cl)cc1Cl)Nc1ccc(-c2nnc3n2CCCCC3)cc1 [CBK296949]	94.8
CC(C)NS(=O)(=O)c1ccc(NS(=O)(=O)c2cccc(C(=O)O)c2)cc1 [CBK296950]	84.3
Cc1ccc(NS(=O)(=O)c2cc(C(=O)O)ccc2Cl)cc1S(=O)(=O)N1CCOCC1 [CBK296954]	113
Cc1nc(SCCN2C(=O)c3ccccc3S2(=O)=O)c2ccccc2n1 [CBK296958]	90
Cc1ccc2nc(COC(=O)c3cc(-c4ccccc4)nn3-c3ccccc3)cc(=O)n2c1 [CBK296959]	89.8
CCCn1c(SCC(=O)c2ccc(CCNC(C)=O)cc2)n[nH]c1=O [CBK296965]	92.1
CCCn1c(SCc2nc(N)nc(Nc3ccccc3CC)n2)n[nH]c1=O [CBK296966]	86.6
CCCn1c(SCC(=O)Nc2scc(-c3cccs3)c2C(=O)OCC)n[nH]c1=O [CBK296967]	94.5

SMILES	viability at 28.5 h, 10 µM [%]
COc1cc(C)c(CN2CCN(C(=O)COc3cc4ccccc4cc3C(=O)O)CC2)cc1OC [CBK296968]	99.6
CCCn1c(SCc2csc(CC(=O)Nc3ccccc3C)n2)n[nH]c1=O [CBK296969]	91.1
CCCCc1ccc(N2C(=O)CC(Nc3ccc(C(=O)O)cc3)C2=O)cc1 (centres unmarked) [CBK296972]	108
COc1cc(-c2nnc(CSc3nc4sc(C(=O)O)c(C)c4c(=O)[nH]3)o2)cc(OC)c1OC [CBK296973]	91
O=C(O)CCC(=O)Nc1cccc(C(=O)Nc2cccc(Cl)c2)c1 [CBK296977]	89.8
Cc1ccc(Sc2ncccc2C(=O)Nc2ccnn2Cc2cccnc2)cc1C [CBK296980]	109
COc1ccc(OC)c(-n2c(SCC(=O)N3CCC(C(=O)O)CC3)nc3ccccc3c2=O)c1 [CBK296981]	87.5
CSCCC(C(=O)O)N1C(=O)C(=Cc2ccc(-c3cccc(Cl)c3)o2)SC1=S (centres unmarked) [CBK296982]	99.3
CCCC(C(=O)O)N1C(=O)C(=Cc2ccc(-c3ccc(C(=O)OCC)cc3)o2)SC1=S (centres unmarked) [CBK296983]	80.6
CCC(C(=O)O)N1C(=O)C(=Cc2ccc(-c3ccccc3C(F)(F)F)o2)SC1=S (centres unmarked) [CBK296985]	99.4
COc1cc(C=CC(=O)O)ccc1OCC(=O)N1CCN(CC(=O)NC(C)(C)C)CC1 [CBK296987]	114
O=C(O)c1cc(C=Cc2cn(Cc3ccccc3)nc2-c2cccnc2)nc2ccccc12 [CBK296988]	105
Cc1c(C(=O)O)sc2nc(SCC(=O)Nc3ccc(OCc4ccccc4)cc3)[nH]c(=O)c12 [CBK296992]	88.5
Cc1cc(C(C)(C)C)cc(C)c1COC(=O)c1ccncc1 [CBK296995]	112
CC(=O)Nc1cccc(NC(=O)c2cc(-c3ccccc3)nn2-c2ccccc2)c1 [CBK296997]	90.1
C[C@H](NC(=O)Cc1ccc(-c2ccccc2)cc1)c1nc2ccccc2[nH]1 [CBK296998]	98.5
CC1=C(C(=O)N2CCOCC2)C(c2ccc(Cl)cc2)NC(=O)N1c1ccc(C(=O)O)cc1 (centres unmarked) [CBK296999]	93.1
CS(=O)(=O)N1CCc2cc(C(=O)Cn3nc(C(=O)O)c4ccccc4c3=O)ccc21 [CBK297000]	80.4
CC(NC(=O)c1ccccc1)C(=O)OCn1nnc2ccccc2c1=O (centres unmarked) [CBK297001]	92
Cc1nc2cc(NC(=O)Cc3c(C)nc4ccccc4c3C)ccc2o1 [CBK297083]	110
CC(=O)Nc1ccc(-c2csc(NC(=O)NS(=O)(=O)c3ccc(C)cc3)n2)cc1 [CBK297084]	107
Cc1ccc(C(CC(=O)O)NC(=O)c2ccc(C)c(S(=O)(=O)N3CCCCC3)c2)cc1 (centres unmarked) [CBK297095]	82.7
CC1CCN(S(=O)(=O)c2ccc(C(=O)N3CCC(C(=O)O)CC3)cc2)CC1 [CBK297097]	105
O=C(O)c1cc(S(=O)(=O)Nc2ccc(OCc3ccccc3)cc2)ccc1Br [CBK297098]	113
CC(C)(C)c1cc(NC(=O)CSc2ccc(S(=O)(=O)N3CCCC3)cn2)n(-c2ccccc2)n1 [CBK297099]	89
O=C(Cn1cnc2sc(-c3ccccc3)cc2c1=O)c1ccc2c(c1)OCO2 [CBK297102]	87
Nc1nc(N)nc(CSc2ncc(-c3ccccc3)n2-c2ccccc2)n1 [CBK297103]	85.9

SMILES	viability at 28.5 h, 10 µM [%]
Cc1cc(C(=O)C(C)Oc2ccc(-c3nnco3)cc2)c(C)n1-c1ccccc1 (centres unmarked) [CBK297104]	101
CS(=O)(=O)Cc1cccc(C(=O)Nc2ccc(Oc3ccccc3)cc2)c1 [CBK297111]	87.5
O=C(O)CC(=Cc1csc(-c2ccc(Cl)cc2)n1)c1nc2ccccc2o1 [CBK297112]	104
CC1(CCc2ccccc2)NC(=O)N(CC(=O)c2ccc(-c3ccccc3)cc2)C1=O (centres unmarked) [CBK297114]	107
O=C(C1CN(C(=O)Cn2ncc(=O)c3ccccc32)c2ccccc2O1)N1CCCCC1 (centres unmarked) [CBK297115]	93.5
CC[C@H](C)[C@H](NC(=O)C1CCN(S(=O)(=O)c2ccc(Cl)c(C(F)(F)F)c2)CC1)C(=O)O [CBK297117]	91.5
Cc1c(C(=O)O)sc(S(=O)(=O)N2CCN(C(=O)c3ccc(C(C)(C)C)cc3)CC2)c1C(=O)O [CBK297119]	85.1
Cc1c(C(=O)O)sc(S(=O)(=O)N2CCN(C(=O)CCC3CCCC3)CC2)c1C(=O)O [CBK297121]	117
Cc1cccc(C(=O)N2CCN(S(=O)(=O)c3sc(C(=O)O)c(C)c3C(=O)O)CC2)c1 [CBK297124]	91.4
CCS(=O)(=O)N1CCc2cc(C(=O)CSc3nnc(-c4ccco4)o3)ccc21 [CBK297126]	98.3
Cc1c(C(=O)O)sc(S(=O)(=O)N2CCN(C(=O)CCc3cccs3)CC2)c1C(=O)O [CBK297135]	105
O=C(O)c1cn(C2CC2)c2cc(N3CCN(C(=O)Cc4ccccc4Cl)CC3)c(F)cc2c1=O [CBK297136]	90.4
CCC(C)C(NC(=O)C1CCN(S(=O)(=O)c2ccc(OC)c(OC)c2)CC1)C(=O)O (centres unmarked) [CBK297140]	90.7
CC(C)OCc1ccc(C(=O)N2CCC(C(=O)O)CC2)cc1 [CBK297141]	83.2
CC(Sc1nc(C2CC2)n(-c2ccccc2)n1)C(=O)N1CCNC1=O (centres unmarked) [CBK297144]	97.2
Cc1ccccc1C(=O)N1CCN(S(=O)(=O)c2sc(C(=O)O)c(C)c2C(=O)O)CC1 [CBK297146]	102
Cc1c(C(=O)O)sc(S(=O)(=O)N2CCN(C(=O)Cc3ccccc3)CC2)c1C(=O)O [CBK297148]	96.2
Cc1ccc(C(=O)N2CCN(S(=O)(=O)c3sc(C(=O)O)c(C)c3C(=O)O)CC2)s1 [CBK297150]	84.8
Cc1ccc(OCC(=O)N2CCN(C(=O)c3cccs3)CC2)c([N+](=O)[O-])n1 [CBK297152]	94.4
CC(=O)c1ccc(OCc2nc(N)nc(Nc3ccccc3)n2)cc1 [CBK297155]	83.1
COc1ccc(-c2cc3ncnc(Sc4nnnn4CC4CCCO4)c3s2)cc1 (centres unmarked) [CBK297157]	95.9
O=C(CSc1nnnn1C1CC1)c1cc2ccccc2o1 [CBK297158]	90.7
O=C(O)c1c2c(nc3ccccc13)C(=Cc1ccc3c(c1)OCCO3)CC2 [CBK297479]	96.3
Cc1ccn2c(NS(=O)(=O)c3ccc(CCC(=O)O)cc3)c(-c3cccs3)nc2c1 [CBK297480]	110
COc1ccc(C(=O)O)cc1S(=O)(=O)Nc1c(-c2cccs2)nc2cc(C)ccn12 [CBK297484]	82.9

Same assay, conditions: human, hela cells, % viability, bulk resorufin, single well

SMILES	viability at 28.5 h, 10 µM [%]
O=C(C1CCN(S(=O)(=O)c2cccs2)CC1)N1CCC(C(=O)O)(c2ccccc2)CC1 [CBK297147]	88
